Source: patent publication US9878007B2, “Syndecan peptides and polypeptides as inhibitors of vascular endothelial growth factor receptor-2 (VEGFR2) and very late antigen-4 (VLA-4)” (Wisconsin Alumni Research Foundation, priority 2015, dated 2018)

Columns and labels:
[1] = tested on: P3x63Ag8 mouse myeloma cells; assay: Invasion of P3x63Ag8 myeloma cells through FN-coated filters; assay type: cell-based; details: 16 hr
Experimental: (§1) FIG. 7A-B. S1ED^214-236, specific for VEGFR2 coupling to VLA-4, blocks myeloma cell invasion but not adhesion. (FIG. 7A) P3x63Ag8 mouse myeloma cells are plating on the VLA-4 ligand FN in the presence or absence of 30 uM S1ED^210-233 (SEQ ID No: 4) or S1ED^214-236 (SEQ ID No: 7) for 2.5 hr. (FIG. 7B) P3x63Ag8 myeloma cells are plated on FN-coated filters in the presence of HPSE inhibitor OGT2115, VLA-4 blocking antibody P1H4, VEGFR2 inhibitor Vandetanib or S1ED^210-233 or S1ED^214-236 and allowed to migrate through the filter for 16 hr. Small black dots are the pores in the filter.
The bottom chambers of Transwell filter chambers (8 μm pores; Corning) were coated with 40 μg/ml of FN. Cells (5×10^5 in 0.2 ml plating medium) were placed in the upper chamber and incubated for 16 hr at 37° C. in the CO2 incubator. After incubation, cells in the upper chamber were removed and cells on the bottom side of the filter were fixed in 4% paraformaldehyde (PFA) and stained with 0.1% Crystal Violet before imaging. Cells from at least five random fields were counted.

[2] = tested on: P3x63Ag8 mouse myeloma cells; assay: Adhesion of P3x63Ag8 myeloma cells to FN; assay type: cell-based; details: 30 uM peptide, 2.5 hr
Experimental: as §1
Nitrocellulose-coated slides were coated for 2 hr at 37° C. with 40 μg/ml FN (kindly provided by Dr. Donna Peters, University of Wisconsin-Madison) or 5 μg/ml recombinant VCAM-1/Fc chimera (R&D Systems) in calcium and magnesium-free PBS (CMF-PBS; 135 mM NaCl, 2.7 mM KCl, 10.2 mM Na2HPO4-7H20 and 1.75 mM KH2PO4, pH7.4). Slides were blocked for 1 hr at 37° C. with RPMI 1640 containing 1% heat-denatured BSA (plating medium). Cells in plating medium were allowed to attach and spread for 2.5 hr at 37° C. Slides were fixed in 4% EM grade paraformaldehyde (Electron Microscopy Sciences) in CMF-PBS and labeled for 30 min in 0.13 μM rhodamine phalloidin (Invitrogen) in CMF-PBS. Coverslips were mounted in non-fluorescing mounting medium (Immumount; Thermo Shandon) and allowed to dry. […]

S1ED^210-233: syndecan-1 ectodomain peptide, residues 210-233 (SEQ ID NO: 4) (DFTFETSGENTAVVAVEPDRRNQS)
invasion / migration of P3X cells through FN-coated filters [1]: blocked by either peptide
adhesion of P3X cells to FN [2]: blocks the adhesion of the myeloma cells to FN
